Experimental data reported in patent publication US20120264928A1, “THERAPEUTIC PHARMACEUTICAL AGENT FOR DISEASES ASSOCIATED WITH DECREASE IN FUNCTION OF GNE PROTEIN, FOOD COMPOSITION, AND FOOD ADDITIVE” (JAPAN HEALTH SCIENCES FOUNDATION, priority 2009, published 2012).

Tested on: primary cultured cells of myotubes derived from the DMRV model mice
Assay: Amount of NeuAc by HPLC in myotubes from DMRV model mice
Type: cell-based
Settings: 100 or 500 μm Ac5GlcNAcol together with 10 mM ManNAc, three days
Protocol: The skeletal muscle tissues collected from the DMRV human patients or the model mice were lightly washed with PBS or Hank's balanced saline and were treated with 0.25% trypsin for 5 minutes. The tissues were finely cut into several millimeters with ophthalmic scissors, were digested with 0.4% collagenase II/0.25% trypsin at 37° C. for 30 minutes, and were left still to collect supernatant. The precipitate was again treated with the enzyme liquid. After being left still, the precipitate was well suspended in a DMEM-Ham's F-12 culture medium. The tissue suspension was passed through a nylon mesh to remove the tissues. The washings and the supernatant were centrifuged to collect cells. […]
In the case that the sample was cultured cells, the cells were washed with PBS three times, and 400 p. […] The fluorescent derivative thus prepared was analyzed with HPLC (JASCO Corp.) using 0.05 to 5 nmol/μl Neu5Ac and Neu5Gc standards. The amount of protein from the tissue was measured with a Bio-Rad Protein Assay kit (Bio-Rad Laboratories).
ManNAc or Ac5GlcNAcol was added to the culture media of primary cultured cells of myotubes derived from the DMRV model mice such that the final concentration of ManNAc was 10 mM and the final concentration of Ac5GlcNAcol was […]. […] The amount of NeuAc in the cultured cells was measured by the HPLC method described above (N=3).

In the case of `CC(=O)N[C@@H](COC(C)=O)[C@@H](OC(C)=O)[C@H](OC(C)=O)[C@@H](COC(C)=O)OC(C)=O` [Ac5GlcNAcol, Penta-O-acetyl N-acetylglucosaminitol], the “amount of NeuAc in the myotubes” value is reported as “further increased the amount of NeuAc”.
